In brackets after ≈: the same amount, converted by molar mass. Entries after “also recorded” stand apart in the source; their conditions may differ.
Assays:
[1] = MacArthur et al 1978; cited from earlier work
[2] = tested on: primary human bronchial epithelial cells; assay: Total protein in bronchial epithelial cell culture supernatants (Bradford); conditions: Bradford analysis, data not shown
bioluminescent Mtb [3] = assay: MIC determination with bioluminescent Mtb; assay type: cell-based, Mycobacterium tuberculosis
bioluminescent Mtb [4] = assay: microbe, parasite or virus in culture; assay type: cell-based, Mycobacterium tuberculosis
[5] = tested on: primary human macrophages; assay: Total protein accumulation in cell culture supernatants (Bradford); conditions: macrophage supernatants, doxycycline groups
MMP-1 [6] = conditions: Rand et al 2009; cited from earlier work
MMP-1 [7] = assay: MMP-1 secretion by stimulated primary human monocytes; assay type: cell-based; conditions: Pam3Cys 5 μg/ml, 24 h

Compound: C[C@H]1c2cccc(O)c2C(=O)C2=C(O)[C@]3(O)C(=O)C(C(N)=O)=C(O)[C@@H](N(C)C)[C@@H]3[C@@H](O)[C@@H]21 [Doxycycline, doxycycline]
- peak concentration in serum [1]: 3.2 µg/mL
- total protein in cell culture supernatants [2]: no different between groups
- drop in relative light units (bioluminescent Mtb [3]; 2.5 μg/ml doxycycline, at 2 days): 1 log
- MIC (bioluminescent Mtb [3]; Mycobacterium tuberculosis, bioluminescent Mtb, confirmed by Resazurin, read-out: minimum inhibitory concentration (MIC)): 2.5 µg/mL (≈ 5.63 µM)
- MBC/MIC ratio (bioluminescent Mtb [4]): 16
- MBC (bioluminescent Mtb [4]; Mycobacterium tuberculosis, 72 h, luminescence monitored over 3 days, read-out: minimum bactericidal concentration (MBC)): 40 µg/mL (≈ 90 µM)
- protein accumulation in the cell culture supernatants [5]: the same in each group

Compound: Nc1ccc(C(=O)O)c(O)c1 [P-amino-salicylic acid]
- MMP-1 secretion by Mtb-infected macrophages (MMP-1 [6]): inhibits

Compound: Pam3Cys
- MMP-1 secretion (MMP-1 [7]): increased; also recorded: up-regulated MMP-1 equivalently to live Mtb

— patent US9750789B2, “Use of matrix metalloproteinase inhibitors to treat tuberculosis” (priority 2011, dated 2017)
